Values joined by “and” are separate entries in the source; they are usually repeats but may differ in a detail not shown here. Equal entries are not always repeated. “Also recorded” adds a separate entry of the source.
Experiments:
[1] = Liver microsomes stability assay, mouse; type: in vitro ADME
Procedure: page 31: using a REMS Autosampler (World Precision Instruments, Sarasota, […]1 cells were grown for 5 days to reach a consistent confluency level monitored by epithelial voltohmmeter to confirm the intactness of the confluent polarized monolayer. For transport experiments, each cultured monolayer on the 96-well plate was washed twice with a transport buffer (HBSS/25 mM […] The cell-based permeability assay was initiated by the addition of each compound solution (10 μmol/L) into inserts (apical side, A) or receivers (basolateral side, B). After incubated […] (if basal to apical permeability), and concentrations were assessed by UPLC/MS (Waters; Milford, MA). All compounds were tested in triplicates. The A→B (or B→A) apparent permeability coefficients (Papp) of each compound were calculated using the equation (3): […], where dQ/dt equals the flux of a drug across the monolayer, the parameters of A equals the surface area of total insert well, and C0 is the initial concentration of substrate in the donor compartment. The efflux ratio was determined by dividing the Papp in the B-A direction by the Papp in the A-B direction. […] NADPH regenerating agent solutions A and B (Corning GentestTM, Cat. No: 451220) were purchased from Discovery Labware (Woburn, MA). Mouse liver microsomes (CD-1, pooled, GibcoTM, Cat. No: MSMCPL) were obtained from Thermo Fisher Scientific (Fredrick, MD). Pooled human liver microsomes (mixed gender, Cat. No: E0630) were purchased from XenoTech (Lenexa, KS). Stock solutions of test compounds were prepared at 10 mM in DMSO. Sample preparation for microsomal stability was modified from Di's publications3,4. […] and 4 hours) by Labcyte Echo 650 acoustic dispenser (Beckman Coulter Life Sciences, Indianapolis, IN). All compounds were tested in triplicate per time point. […] Plasma stability assay5: The degradation of human or mouse plasma was assessed by monitoring the gradual reduction of the parent compound over specified time intervals (0, 3, 24, and 48 hours). […]

[2] = test system: panel of AML and ALL cell lines; assay: CTG viability in a panel of AML and ALL cell lines (Fig. 3a); type: cell-based, human; conditions: for IC50: replicate values
Procedure: The primary screen was performed in 384-well format using the CellTiter Glo (CTG) luminescent cell viability assay (Promega) as previously described. […] After overnight incubation at 37 °C in a humidified 5% CO2 incubator, cells were treated with compounds in dose–response format using a Pintool on a Biomek FX^P Laboratory Automation Workstation (Beckman Coulter). […] Luminescence signal was measured using an EnVision plate reader (PerkinElmer).
HD-MB03 cell line was obtained from Drs. Milde, Witt and Deubzer[52]. HD-MB03 and MB004 cells were grown in a neurobasal medium supplemented with glutamine, streptomycin, penicillin, B27, EGF, bFGF, and heparin as previously described. MB002 and MB004 cells were obtained from Dr Yoon-Jae Cho[54]. MB002 cells were cultured in 80% neurobasal medium supplemented with glutamine, streptomycin, penicillin, B27, and 20% conditioned media from previous passages; EGF, bFGF, and heparin were also added to the medium. MHH-CALL4, NALM-16, MHH-CALL-2 cells were obtained from the German Collection of Microorganisms and Cell Cultures GmbH (DSMZ, Germany). PER-117 cells were obtained from Telethon Kids Institute (Perth, Australia). The cells were cultured in RPMI1640 medium supplemented with 10% FBS (Hyclone), Penicillin/Streptomycin (100 units/mL), and Glutamine (100 µM) except for MHH-CALL-2 cells where 20% FBS were used. […] OCI-AML3 cells were purchased from DSMZ (ACC 690) and cultured in Alpha-MEM media (Invitrogen) supplemented with 20% FBS and 100 U/ml penicillin–streptomycin. […] Cell identity was confirmed by STR profiling using PowerPlex® Fusion System (Promega).

[3] = Homo sapiens, MOLM-13, MOLM-13 cells

SMILES	half-life at 10 µM ([1]; CD-1, mouse, liver microsomes, pH 7.4, read-out: Microsome stability t1/2) [h]	IC50 values / cytotoxicity in panel of AML and ALL cell lines ([2]; CTG)	IC50 ([2]; HNT-34 cells)	IC50 ([2]; Homo sapiens, HNT-34, HNT-34 cells) [nM]	IC50 ([2]; Homo sapiens, Kasumi-3, KASUMI-3 cells) [nM]	IC50 ([2]; Homo sapiens, MHHCALL4, MHHCALL-4 cells) [nM]	IC50 ([2]; Homo sapiens, MHHCALL-2 cells) [nM]	IC50 [2, 3] [nM]	IC50 ([2]; KASUMI-3 cells)	IC50 ([2]; MHHCALL-4 cells)	IC50 ([2]; MOLM-13 cells)	Ke [1]	t(1/2) [1]	IC50 ([2]; NALM16 cells)
O=C1CCC(N2Cc3cc(Nc4noc5ccccc45)ccc3C2=O)C(=O)N1 (centres unmarked) [SJ3149]	> 10	single digit nanomolar range; also recorded: low nanomolar to sub-nanomolar range	1.5 nM	1	118	3	2	8	72 nM and 71.7 nM	4 nM	11 nM and 7.1 nM	–	–	–
O=C1CCC(N2Cc3cc(Nc4noc5ccccc45)ccc3C2=O)C(=O)N1 (centres unmarked) [SJ001043149-1]	–	–	–	–	–	–	–	–	–	–	–	-0.01	-69.12	–
Cc1cccc(C(=O)Nc2ccc3c(c2)CN(C2CCC(=O)NC2=O)C3=O)c1 (centres unmarked) [SJ0040]	–	–	2 nM (2×) and 4.9 nM	–	–	–	27	125	16 nM and 11 nM and 30.2 nM	67 nM and 73 nM and 17 nM	136 nM and 96.2 nM	–	–	130 nM and 16 nM and 25 nM

Reference: PMC10791743, “Selective CK1α degraders exert antiproliferative activity against a broad range of human cancer cell lines” (Nature Communications, 2024)
